Data taken from patent publication US10392405B2, “Macrocyclic immunomodulators” (CHEMOCENTRYX, INC., priority 2017, dated 2019).
pIC50: −log10 of the molar value.

Biological target: human PD-L1 / Human PD-1 (Homo sapiens (Human), UniProt Q9NZQ7)
Assay: Enzyme-Linked Immunosorbent Assay (ELISA), PD-1/PD-L1 binding
Settings: plate-coated human PD-L1, biotinylated human PD-1, absorbance 450 nm
Description: 96 Well plates were coated with 1 μg/mL of human PD-L1 (obtained from R&D) in PBS overnight at 4° C. The wells were then blocked with 2% BSA in PBS (W/V) with 0.05% TWEEN-20 for 1 hour at 37° C. The plates were washed 3 times with PBS/0.05% TWEEN-20 and the compounds were serial diluted (1:5) in dilution medium and added to the ELISA plates. Human PD-1 and biotin 0.3 μg/mL (ACRO Biosystems) were added and incubated for 1 hour at 37° C. then washed 3 times with PBS/0.05% TWEEN-20. A second block was performed with 2% BSA in PBS (W/V)/0.05% TWEEN-20 for 10 min at 37° C. and was washed 3 times with PBS/0.05% TWEEN-20. Streptavidin-HRP was added for 1 hour at 37° C. then washed 3 times with PBS/0.05% TWEEN-20. TMB substrate was added and reacted for 20 min at 37° C. A stop solution (2 N aqueous H2SO4) was added. The absorbance was read at 450 nm using a micro-plate spectrophotometer.
Compounds in Table 1 were prepared by methods as described in the Examples and evaluated according to the assay above. The IC50 of the compounds are presented in Table 1 as follows: • +, 20000 nM≥IC50≥500 nM; • ++, 500 nM≥IC50≥100 nM; • +++, 100 nM>IC50.

human PD-L1 / Human PD-1, sequence (Q9NZQ7 19-239): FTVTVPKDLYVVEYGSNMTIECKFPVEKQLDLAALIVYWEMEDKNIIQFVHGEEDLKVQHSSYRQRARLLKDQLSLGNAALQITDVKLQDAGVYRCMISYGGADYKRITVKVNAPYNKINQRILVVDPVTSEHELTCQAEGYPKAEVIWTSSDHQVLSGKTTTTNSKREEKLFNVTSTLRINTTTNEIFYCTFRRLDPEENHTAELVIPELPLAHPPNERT

SMILES	pIC50
Cc1c(COc2cc3c(cc2Cl)CNC(CO)CCCCNC(=O)c2cncc(c2)CO3)cccc1-c1cccc(OCCCN2CC[C@@H](O)C2)c1C (single isomer, unassigned) [Compound 1.024]	> 7.00
Cc1c(COc2cc3c(cc2Cl)CN[C@H](C(=O)O)CCCCNC(=O)c2cncc(c2)CO3)cccc1-c1cccc(OCCCN2CCC(O)CC2)c1C [Compound 1.004]	> 7.00
Cc1c(COc2cc3c(cc2Cl)CN[C@H](C(=O)O)CCCCNC(=O)c2cncc(c2)CO3)cccc1-c1cccc(OCCCCl)c1C [Compound 1.005]	4.70 to 6.30
Cc1c(COc2cc3c(cc2Cl)CN[C@@H](CO)C(=O)NCCNC(=O)c2cncc(c2)CO3)cccc1-c1ccccc1 [Compound 1.006]	6.30 to 7.00
O=C1NCCCC[C@@H](C(=O)O)NCc2cc(Cl)c(O[C@H]3CCc4c(-c5ccccc5F)cccc43)cc2OCc2cncc1c2 [Compound 1.007]	6.30 to 7.00
O=C1NCCCC[C@@H](C(=O)O)NCc2cc(Cl)c(O[C@H]3CCc4c(-c5ccc6c(c5F)OCCO6)cccc43)cc2OCc2cncc1c2 [Compound 1.014]	> 7.00
Cc1c(COc2cc3c(cc2Cl)CN[C@H](C(=O)O)CCCCNC(=O)c2cncc(c2)CO3)cccc1-c1cccc(OCCCN2CC(O)C2)c1C [Compound 1.020]	> 7.00
Cc1c(COc2cc3c(cc2Cl)CN[C@H](C(=O)O)CCCCNC(=O)c2cc(C#N)cc(c2)CO3)cccc1-c1cccc(OCCCN2CCC(F)CC2)c1C [Compound 1.021]	> 7.00
Cc1c(COc2cc3c(cc2Cl)CN[C@H](CO)CCCCNC(=O)c2cncc(c2)CO3)cccc1-c1cccc(OCCCN2CCC(F)CC2)c1C [Compound 1.025]	> 7.00

Second part, the compound after the results:

pIC50	SMILES
> 7.00	COc1cccc(-c2cccc(COc3cc4c(cc3Cl)CN[C@H](C(=O)O)CCCCNC(=O)c3cncc(c3)CO4)c2C)c1F [Compound 1.001]
> 7.00	Cc1c(COc2cc3c(cc2Cl)CN[C@H](C(=O)O)CCCCNC(=O)c2cncc(c2)CO3)cccc1-c1ccc2c(c1)OCCO2 [Compound 1.002]
> 7.00	Cc1c(COc2cc3c(cc2Cl)CN[C@H](C(=O)O)CCCCNC(=O)c2cncc(c2)CO3)cccc1-c1ccccc1F [Compound 1.003]
6.30 to 7.00	Cc1c(COc2cc3c(cc2Cl)CN[C@H](C(=O)O)COCCNC(=O)c2cncc(c2)CO3)cccc1-c1ccccc1 [Compound 1.008]
4.70 to 6.30	Cc1c(COc2cc3c(cc2Cl)CN[C@H](C(=O)O)CCNC(=O)c2cncc(c2)CO3)cccc1-c1ccccc1 [Compound 1.009]
6.30 to 7.00	Cc1c(COc2cc3c(cc2Cl)CN[C@H](C(=O)O)CCCNC(=O)c2cncc(c2)CO3)cccc1-c1ccccc1 [Compound 1.010]
6.30 to 7.00	Cc1c(COc2cc3c(cc2Cl)CN[C@H](CC(=O)O)CCCCNC(=O)c2cncc(c2)CO3)cccc1-c1ccccc1 [Compound 1.011]
6.30 to 7.00	Cc1c(COc2cc3c(cc2Cl)CN[C@H](C(=O)O)CCCCNC(=O)CCCCO3)cccc1-c1ccccc1 [Compound 1.012]
4.70 to 6.30	Cc1c(COc2cc3c(cc2Cl)CN[C@H](C(=O)O)CCCCNC(=O)c2cncc-3c2)cccc1-c1ccccc1 [Compound 1.013]
> 7.00	Cc1c(COc2cc3c(cc2Cl)CN[C@H](C(=O)O)CCCCNC(=O)c2cncc(c2)CO3)cccc1-c1ccccc1 [Compound 1.016]
